# PMC7356613, “Unsymmetrically-Substituted 5,12-dihydrodibenzo[b,f][1,4]diazocine-6,11-dione Scaffold—A Useful Tool for Bioactive Molecules Design” (Molecules, 2020)
# Where two headings read alike, the source gives them in different places.
# How the values were obtained:
# [1] = tested on: U87 cells (human primary glioblastoma); test: Alamar Blue cytotoxicity assay, U87; format: cell-based; details: U-87 MG; for inhibition at 300 µM: bracketed values, read-out: proliferation inhibition expressed as a percentage at highest concentration used
# Procedure: (§1) HeLa, U87, BICR18, EUFA30 cell lines were cultured in DMEM medium (Life Technology) supplemented with 10% fetal bovine serum (Life Technology) and 0.1% antibiotics, penicillin and streptomycin (Life Technology). Cells were grown in a humidified atmosphere of CO2/air (5/95%) at 37 °C.
# (§2) Exponentially growing cells were seeded onto a 96-well plate at the density of 2 × 10^3 cells/well, cultured for 18 h, and treated with newly synthesized derivatives at concentrations 1–300 µM, or with DMSO as a control, for 24 or 48 h. Alamar Blue (Invitrogen) was added accordingly to manufacturer protocol. After 4 h, light emission at 590 nm was measured with excitation at 560 nm using a scanning multiwell spectrophotometer (DTX 880, Beckman Coulter). The experiments were carried out at least three times with three replicates for each inhibitor concentration. After background subtraction, inhibition rate, IC50 was calculated as the concentration of the component inhibiting cell growth by 50%. All the calculations were performed using Origin 9.0 software.
# [2] = tested on: EUFA30 cells (non-cancerous human fibroblasts); test: Alamar Blue cytotoxicity assay, EUFA30; format: cell-based; details: Fibroblast; for inhibition at 300 µM: bracketed values, read-out: proliferation inhibition expressed as a percentage at highest concentration used
# Procedure: as §1, §2
# [3] = tested on: HeLa cells (cervix adenocarcinoma); test: Alamar Blue cytotoxicity assay, HeLa; format: cell-based; details: Homo sapiens; for inhibition at 300 µM: bracketed values, read-out: proliferation inhibition expressed as a percentage at highest concentration used
# Procedure: as §1, §2
# [4] = tested on: BICR18 cells (laryngeal squamous cell carcinoma); test: Alamar Blue cytotoxicity assay, BICR18; format: cell-based; details: 300 µM, bracketed values, read-out: proliferation inhibition expressed as a percentage at highest concentration used
# Procedure: as §1, §2
# [5] = tested on: EUFA30, HeLa, BICR18, U87 cells; test: Alamar Blue cytotoxicity assay, statements over all tested cell lines; format: cell-based; details: Homo sapiens, concentrations 1-300 µM, group range = lowest to highest value, read-out: IC50 across the tested cell lines
# Procedure: as §1, §2
# HeLa cells = test: Annexin V-FITC / propidium iodide flow cytometry, HeLa; format: cell-based; details: 24 h
# Procedure: as §1
# (§3) The Annexin V-FITC apoptosis detection kit (BD Biosciences) was used to detect apoptosis by flow cytometry. Cells were seeded at Petri dishes, cultured for 18 h with tested agents applied for 24 h. DMSO was added as the non-treated control and camptothecin (CPT) as the positive control. Subsequently, cells were washed with PBS, resuspended in binding buffer at a concentration of 2 × 10^6 cells/mL, and anti-Annexin V FITC-conjugated antibody and propidium iodide were added to 100 µL aliquots. The mixtures were incubated for 15 min at room temperature, supplemented with binding buffer to 500 µL and processed by BD FACSCalibur (BD Biosciences). Data were analyzed in Flowing Software version 2.5.1 (Flowing Software, http://www.uskonaskel.fi/flowingsoftware).
# EUFA30 cells = test: Annexin V-FITC / propidium iodide flow cytometry, EUFA30; format: cell-based, human; details: 24 h
# Procedure: as §1, §3
# [6] = EUFA30, positive control, 10 μM
Compound,melting point,"inhibition at 300 µM ([1]; U87, 24 h) [%]","inhibition at 300 µM ([2]; EUFA30, 24 h) [%]","inhibition at 300 µM ([2]; EUFA30, 48 h) [%]",inhibition at 300 µM ([3]; 24 h) [%],inhibition at 300 µM ([3]; 48 h) [%],"inhibition at 300 µM ([4]; BICR18, 24 h) [%]","inhibition at 300 µM ([4]; BICR18, 48 h) [%]",further results
"O=C1Nc2ccccc2NC(=O)c2ccccc21 [Compound 3a, 5,12-dihydrodibenzo[b,f][1,4]diazocine-6,11-dione]",286 to 287 °C,17.6,21.2,9,20.7,1.5,7.1,–,–
"O=C1Nc2ccc([N+](=O)[O-])cc2NC(=O)c2ccccc21 [Compound 3b, 2-nitro-5,12-dihydrodibenzo[b,f][1,4]diazocine-6,11-dione]",230 °C (dec.),10.4,31,18.6,33.2,4.7,2.2,–,–
"O=C(c1ccccc1)c1ccc2c(c1)NC(=O)c1ccccc1C(=O)N2 [Compound 3c, 2-benzoyl-5,12-dihydrodibenzo[b,f][1, 4]diazocine-6,11-dione]",156 to 157 °C,15,28.8,–,14.5,–,10,–,–
"O=C1Nc2ccccc2NC(=O)c2cc([N+](=O)[O-])ccc21 [Compound 3d, 8-nitro-5,12-dihydrodibenzo[b,f][1,4]diazocine-6,11-dione]",243 to 244 °C,27.5,9.2,4.2,23.4,3.9,25.1,2.5,–
"CN1C(=O)c2ccccc2C(=O)Nc2ccccc21 [Compound 3e, 5-methyl-5,12-dihydrodibenzo[b,f][1,4]diazocine-6,11-dione]",206 to 207 °C,34.1,31.6,17.5,19.8,5.7,22.7,–,–
"CN1C(=O)c2ccccc2C(=O)Nc2cc(Cl)c(Cl)cc21 [Compound 3f, 2,3-dichloro-5-methyl-5,12-dihydrodibenzo[b,f][1,4]diazocine-6,11-dione]",–,–,–,19.1,–,7.8,47.5,7.6,"IC50 ([1]; U87, 24 h of treatment, read-out: IC50 based on survival of cells): 207 ± 23.6 µM; inhibition at 300 µM ([1]; U87, 48 h): 29.9%; IC50 ([2]; EUFA30, 24 h of treatment, read-out: IC50 based on survival of cells): 320 ± 36 µM; IC50 [5]: 93.7 to 323 µM; IC50 ([3]; 24 h of treatment, read-out: IC50 based on survival of cells): 298 ± 11 µM; number of necrotic cells (HeLa cells; 200 µM, non-treated control 5.4%): 15.3%; dead cell fraction: early apoptosis (EUFA30 cells; EUFA30, 200 µM, non-treated control 0.3%): 6.9%; dead cell fraction: late apoptosis (EUFA30 cells; EUFA30, 200 µM, non-treated control 0.4%): 1.6%; dead cell fraction: necrosis (EUFA30 cells; EUFA30, 200 µM, non-treated control 5.7%): 4.3%"
"CN1C(=O)c2cscc2C(=O)Nc2ccccc21 [Compound 3i, 5-methyl-5,10-dihydrobenzo[b]thieno[3,4-f][1,4]diazocine-4,11-dione]",241 to 242 °C,36.6,29.4,1.5,14.8,1.6,24,–,"inhibition at 300 µM ([1]; U87, 48 h): 2.8%"
"O=C1Nc2ccccc2N(Cc2ccccc2)C(=O)c2ccccc21 [Compound 3j, 5-benzyl-5,12-dihydrodibenzo[b,f][1,4]diazocine-6,11-dione]",205 to 206 °C,33,33.2,32.6,34.3,3.3,42.2,6.1,IC50 [5]: > 300 µM
"CCOC(=O)c1cc2c(cc1C(=O)OCC)C(=O)Nc1ccccc1NC2=O [Compound 3k, diethyl 6,11-dioxo-5,6,11,12-tetrahydrodibenzo[b,f][1,4]diazocine-8,9-dicarboxylate]",242 to 243 °C,37.2,36.7,–,28.2,–,16.8,5.6,"inhibition at 300 µM ([1]; U87, 48 h): 3.1%"
"CN1C(=O)c2ccccc2C(=O)N(C)c2ccccc21 [Compound 3l, 5,12-dimethyl-5,12-dihydrodibenzo[b,f][1,4]diazocine-6,11-dione]",265 to 266 °C,39,38.1,19.5,29.5,2.8,22.1,–,–
"CN(C)CCN1C(=O)c2ccccc2C(=O)N(Cc2ccccc2)c2ccccc21 [Compound 3m, 5-benzyl-12-(2-(dimethylamino)ethyl)-5,12-dihydrodibenzo[b,f][1,4]diazocine-6,11-dione]",154 to 155 °C,36.8,42.2,9.9,23.4,–,30.1,4.7,"inhibition at 300 µM ([1]; U87, 48 h): 4.1%"
"O=C1CCC(=O)Nc2ccccc2N1 [Compound 6, 1,3,4,6-tetrahydrobenzo[b][1,4]diazocine-2,5-dione]",244 to 245 °C,19.6,29.4,14,21.5,4.3,11.3,–,–
"Nc1ccccc1N1C(=O)c2ccccc2C1=O [Compound 10, 2-(2-aminophenyl)isoindoline-1,3-dione]",195 to 196 °C,22.9,25.6,–,4.9,–,11.4,–,–
"CC[C@@]1(O)C(=O)OCc2c1cc1n(c2=O)Cc2cc3ccccc3nc2-1 [camptothecin, reference compound]",–,–,–,–,–,–,–,–,"necrotic cells (HeLa cells; positive control, 10 μM): 31.2%; dead cell fraction: early apoptosis (EUFA30 cells; [6]): 4.1%; dead cell fraction: late apoptosis (EUFA30 cells; [6]): 6.8%; dead cell fraction: necrosis (EUFA30 cells; [6]): 18.7%"
